A compilation of properties of binary mixtures (doi:10.1016/j.jct.2022.106952)

Experiment: xn = mol fraction of the nth substance listed
Details: 101.3 kPa

CCCC[n+]1ccn(C)c1.F[P-](F)(F)(F)(F)F + CCCCCCCCN1CCCC1=O
x1 = 1
Details | speed of sound [m/s]
308.15 K | 1419.8
313.15 K | 1408.2
318.15 K | 1396.8
323.15 K | 1385.6

CCCCCCCCN1CCCC1=O + CCCC[n+]1ccn(C)c1.F[P-](F)(F)(F)(F)F
speed of sound [m/s]
Details | 303.15 K | 308.15 K | 313.15 K | 318.15 K | 323.15 K
x2 = 0 | 1433.6 | 1416.3 | 1399.1 | 1382.1 | 1365.2
x2 = 0.0531 | 1430 | 1413.2 | 1396.4 | 1379.8 | 1363.3
x2 = 0.1034 | 1425.4 | 1408.9 | 1392.5 | 1376.3 | 1360.2
x2 = 0.1513 | 1421.4 | 1405.2 | 1389.2 | 1373.3 | –
x2 = 0.2034 | 1417.6 | 1401.8 | 1386.2 | 1370.7 | 1355.3
x2 = 0.3009 | 1412.1 | – | 1382 | 1367.1 | 1352.4
x2 = 0.405 | – | 1393.9 | 1379.6 | 1365.4 | 1351.4
x2 = 0.5042 | – | 1393.1 | 1379.4 | 1365.8 | 1352.3
x2 = 0.5996 | 1407.7 | – | – | 1367.9 | –
x2 = 0.6991 | 1410.4 | 1397.4 | 1384.6 | 1372.1 | 1359.6
x2 = 0.8029 | 1415.4 | 1402.9 | 1390.6 | – | 1366.5
x2 = 0.8451 | – | 1405.7 | – | 1381.7 | 1369.9
x2 = 0.8927 | 1421.5 | 1409.4 | 1397.5 | – | 1374.2
x2 = 0.9513 | 1426.6 | 1414.7 | 1403 | 1391.4 | 1380.1
